Tests used:
[1] = system: mixed MCF10A^MUC1,±HER2 cells; assay: Mixed cell suspension survival assay under anchorage-free conditions; type: cell-based; details: 1 nM, 72 h
Method: For mixed cell assays, MUC1ΔCT was induced with 200 ng/ml doxycycline for 24 h. A 1:1 mixture of 2.5×10^5 MCF10A^MUC1 and MCF10AMUC1, HER2 cells were seeded per well in a 24-well ultra-low attachment plate in 0.80 mL of complete media. 200 ng/ml doxycycline, 1 nM StcE, and 1 nM αHER2-eStcE were added as appropriate. The plate was incubated at 37° C., 5% CO2, 125 rpm. At t=0, 24, 48, and 72 h, cells were spun down at 350× g for 5 min, resuspended in 100 μL of PBS with 0.1% benzonase, and incubated at room temperature for 15 min. Cells were then resuspended in 200 μL of enzyme-free cell dissociation buffer and stained with Alexa Fluor 647 anti-human CD340 (erbB2/HER-2) antibody (24D2 clone) (BioLegend) and 500 nM Sytox Green Nucleic Acid Stain (Thermo Fisher Scientific) for 20 min at 4° C., according to manufacturer recommendations, prior to analysis using a BD Accuri C6 plus. All flow cytometry data were analyzed using FlowJo v. 10.0 (TreeStar).

[2] = system: leukemia cell lines (K562, CCRF-CEM, CCRF-HSB-2); assay: NK cell killing assay with mucinase-treated leukemia cell lines; type: cell-based, human
Method: NK cell isolation. PBMC aliquots were quickly thawed and diluted in 10 mL of RPMI containing DNAase to break up cell aggregates. Cells were incubated at 5% CO2, 37° C. for 30 min and subsequently counted in duplicate. Cells were then spun down at 600× g and resuspended in RPMI to a final cell concentration of 50×10^6 cells/mL. Isolation of NK cells was performed according to manufacturer's instructions using an NK cell magnetic isolation kit (Stem Cell Technologies). NK cells were cultured for at least 24 h before conducting experiments. For killing experiments, NK cells were cultured for 24 h in complete media containing 0.2-0.5 μg/mL IL-2 (BioLegend).
NK cell killing assays. Target cells were harvested by centrifugation and resuspended in serum-free RPMI containing 5 μM Cell Tracker Far Red (Thermo Fisher Scientific) at 5×10^5 cells/mL. Cells were then incubated for 30 min at 37° C.; where indicated, cells were treated with […] StcE. Following staining and StcE treatment, cells were spun down, washed twice with PBS containing 1 mM EDTA, and resuspended in complete media. Cells were diluted to 1×10^5 cells/mL in complete media containing 100 nM Sytox Green, and 100 μL of cell suspension was aliquoted into a flat bottom 96-well plate. Separately, NK cells were diluted to various cell concentrations to generate the indicated effector: target ratios in complete media containing 100 nM Sytox Green. Where indicated, these cell suspensions were treated with 20 nM StcE for 30 min, washed twice with PBS containing 1 mM ETDA, and resuspended in complete media containing 100 nM Sytox Green. 100 μL of these cell suspensions was then mixed with the target cell suspensions to generate a total volume of 200 μL. Cells were incubated at 37° C. for 4 h and analyzed by flow cytometry.

[3] = system: mucins in plasma and tissues; assay: In vivo mucin degradation Western blot after StcE; design: species or system mouse; details: 0.25 mg/kg
[4] = biological target: T1, cell surface mucins (CD43) on mixed K562^±HER2 cells (Homo sapiens, UniProt P16150); assay: K562 mixed cell CD43 cleavage assay; type: cell-based; details: 1 nM, overnight
T1 construct: endogenous in cells; host or cells: K562 and K562^HER2 (HER2 retrovirally transduced; CD43 endogenous)
T1 sequence (P16150 20-400): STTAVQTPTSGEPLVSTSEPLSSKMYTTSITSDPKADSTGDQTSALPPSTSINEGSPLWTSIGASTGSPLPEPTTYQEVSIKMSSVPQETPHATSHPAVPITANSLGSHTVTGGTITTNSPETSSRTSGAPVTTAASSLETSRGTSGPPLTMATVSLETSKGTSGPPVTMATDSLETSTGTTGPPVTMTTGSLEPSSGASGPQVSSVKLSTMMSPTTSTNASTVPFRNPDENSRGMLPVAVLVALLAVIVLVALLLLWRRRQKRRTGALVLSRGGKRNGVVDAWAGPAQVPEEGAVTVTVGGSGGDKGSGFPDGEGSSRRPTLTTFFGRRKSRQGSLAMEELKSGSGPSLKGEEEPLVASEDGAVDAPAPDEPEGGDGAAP
Method: K562 mixed cell CD43 cleavage assay. 2.5×10^5 K562 and K562^HER2 cells were allocated per well to a 96-well ultra-low attachment round bottom plate in 150 μL of complete media. 50 μL of mucinases in PBS were added to wells and the plate was incubated (overnight unless stated otherwise) at 37° C. Cells were washed twice with cold FACS buffer with 2 mM EDTA, once with cold FACS buffer, and stained with Alexa Fluor 488 anti-human CD340 (erbB2/HER-2) antibody (24D2 clone) (BioLegend) and Alexa Fluor 647 CD43/sialophorin antibody (MEM^−59 clone) (Novus Biologicals) in FACS buffer supplemented with 0.1% benzonase on ice protected from light. Cells were washed three times with cold FACS buffer with 2 mM EDTA and stained with 1 μM Sytox AADvanced (Thermo Fisher Scientific) or 1 μM Sytox Blue in FACS buffer with 2 mM EDTA for 5 min on ice prior to analysis using a BD Accuri C6 plus or MACSQuant Analyzer 10 Flow Cytometer (Miltenyi Biotec). Samples were compensated using single-stained controls in FlowJo v. 10.0. Unstained and PBS-treated samples were used to define 0% and 100% cell surface CD43, respectively, and each sample was normalized to percent CD43 within each replicate. Using GraphPad Prism 9, replicates were fitted to inhibitor concentration vs normalized response.

Which “Suspension survival in mixed HER2^+ and HER2- populations” value [1] does the source give for “StcE: secreted protease of C1 esterase inhibitor, zinc metalloprotease pan mucinase from E. coli O157:H7; SEQ ID NO:1” here?
The value was “cell death in both populations”.

What about the “NK cell killing after StcE treatment of the NK cells” value ([2]; NK cells treated with StcE) of the same substance?
The value was “no effect relative to untreated control”.

What about the “NK cell killing of StcE-treated leukemia cells” value ([2]; target cells treated with StcE, 4 h with NK cells) of the same substance?
The value was “increased NK cell surveillance”.

What about the “Cytotoxicity of StcE treatment of leukemia cell lines” value ([2]; without NK cells, n=3) of the same substance?
The value was “statistically significant baseline toxicity increase”.

And the “Digestion of mucins in plasma and tissues” value [3]?
The value was “digested mucins throughout the body”.

What about the “Removal of cell surface mucins on HER2- cells” value [4] of the same substance?
The value was “complete removal”.

What about the “Removal of cell surface mucins on HER2^+ cells” value [4] of the same substance?
Its value is “complete removal”.
